Laboratory results taken from patent EP3057949B1, “SECONDARY ALCOHOL QUINOLINYL MODULATORS OF ROR GAMMA T” (Janssen Pharmaceutica NV, priority 2013, dated 2015).
Counter-ions that a name gives are not always drawn.

Columns and labels:
full-length human RORγt = biological target: T1, full-length human RORγt (Homo sapiens, UniProt P51449); experiment: RORγt (full-length human) Reporter Assay (GAL4 luciferase, HEK293T cells); type: cell-based; conditions: for inhibition at 2 µM / inhibition at 0.67 µM: HEK-293T; for inhibition at 2 µM: read-out: RORγt (FL) Reporter Assay, % inhibition @ 2 µM; for IC50: overnight (16 to 20 hours) incubation, read-out: RORγt (FL) Reporter Assay, IC50; for inhibition at 0.67 µM: 0.67 µM compound concentration (footnote *), read-out: RORγt (FL) Reporter Assay, % inhibition (values marked *)
T1 construct: expressed in transfected cells; host or cells: HEK293T
T1 sequence (P51449 1-497 isoform P51449-2): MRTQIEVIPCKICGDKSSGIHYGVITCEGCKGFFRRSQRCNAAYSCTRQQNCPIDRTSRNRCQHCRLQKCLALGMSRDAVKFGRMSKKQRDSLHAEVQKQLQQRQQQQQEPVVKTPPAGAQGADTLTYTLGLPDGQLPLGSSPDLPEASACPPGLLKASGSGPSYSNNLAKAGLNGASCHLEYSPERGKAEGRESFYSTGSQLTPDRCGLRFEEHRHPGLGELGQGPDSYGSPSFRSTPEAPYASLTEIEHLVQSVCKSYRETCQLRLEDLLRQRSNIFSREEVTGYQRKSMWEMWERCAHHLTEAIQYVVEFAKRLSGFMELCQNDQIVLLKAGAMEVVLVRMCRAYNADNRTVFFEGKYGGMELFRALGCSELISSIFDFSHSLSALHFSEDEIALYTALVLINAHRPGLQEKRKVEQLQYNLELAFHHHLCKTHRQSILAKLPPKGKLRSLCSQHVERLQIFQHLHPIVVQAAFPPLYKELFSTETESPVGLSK
Procedure: (§1) Compounds were assessed for RORgt functional modulation using either the RORgt ligand binding domain (LBD) reporter assay, or the RORgt full-length (FL) reporter assay.
A reporter assay was used to test functional activity of RORγt modulatory compounds on transcriptional activation driven by full-length human RORγt. Cells used in this assay were transiently co-transfected with three different plasmids, one expressing the GAL4-DNA binding domain (DBD)-RORγt fusion protein under control of a CMV promoter (NH2-Gal4-DBD:RORC-COOH in pCMV-BD, Stratagene #211342), and two reporter plasmids - the firefly luciferase reporter under control of a GAL4 promoter (pFR-Luc 2x GAL4) and Renilla luciferase reporter under control of CMV promoter (pRL-CMV, Promega #E2261). The full-length coding sequence was used for human RORγt, i.e., nucleotides 142-1635 of human RORγt, transcript variant 2, NCBI Accession: NM_001001523.1 (SEQ ID NO:1). HEK293T cells were plated at 35000 per well in 96-well plate in medium of MEM with 8.6% FBS. After 18-22 hours incubation, the transfection was carried out by using a PEI solution with 170.5 ng total DNA/well (50 ng pCMV-BD-ROR plus 20 ng of pFR-Luc reporter and 0.5 ng of pRL-CMV reporter plus 100 ng Carrier DNA (Clontech # 630440) for each well). 4-6 hours after transfection, cells were treated with compounds for overnight in the medium with final concentration of FBS 1.1% and DMSO 0.1%. After overnight (16 to 20 hours) incubation, media were removed and cells were lysed with 20 µL 1x Passive Lysis Buffer (Promega) for 10-15 minutes. Luminescence was measured using a BMG LUMIstar OPTIMA plate reader, after addition of 75 µL/well firefly luciferase buffer, followed by 75 µL/well Renilla luciferase buffer. To calculate the effect of compounds on RORγt activity, firefly values were normalized against values of DMSO only and values of reference compound at saturating concentration, then further normalized against Renilla signals. IC50s were generated by plotting final Renilla normalized data against compound concentration and percent inhibition was calculated against DMSO control.

[1] = biological target: T2, human RORγt ligand binding domain (RORγt LBD) (Homo sapiens, UniProt P51449); experiment: ThermoFluor® Assay (RORγt thermal shift binding); conditions: 0.065 mg/mL RORγt, 60 µM 1,8-ANS, pH 7.0; estimated from concentration response curves
T2 construct: His-tag (N); TurboTEV protease cleavage site (ENLYFQG) (N); made in house; host or cells: E. coli (pHIS1, modified pET vector)
T2 sequence (P51449 258-518): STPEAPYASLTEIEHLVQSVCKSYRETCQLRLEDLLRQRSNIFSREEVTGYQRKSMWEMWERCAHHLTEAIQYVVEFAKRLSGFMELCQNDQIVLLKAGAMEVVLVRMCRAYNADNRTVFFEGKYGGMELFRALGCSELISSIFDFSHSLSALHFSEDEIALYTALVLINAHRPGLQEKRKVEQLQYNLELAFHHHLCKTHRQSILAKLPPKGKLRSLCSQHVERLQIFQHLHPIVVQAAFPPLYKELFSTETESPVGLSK
Procedure: This approach is applicable to a wide variety of systems, and rigorous in theoretical interpretation through quantitation of equilibrium binding constants (KD).
The shift in the melting point described as a ΔTm is proportional to the concentration and affinity of the ligand. The compound potency may be compared as a rank order of either ATm values at a single compound concentration or in terms of KD values, estimated from concentration response curves.
ThermoFluor® experiments were carried out using instruments owned by Janssen Research and Discovery, L.L.C. through its acquisition of 3-Dimensional Pharmaceuticals, Inc. 1,8-ANS (Invitrogen) was used as a fluorescent dye. Protein and compound solutions are dispensed into black 384-well polypropylene PCR microplates (Abgene) and overlayed with silicone oil (1 µL, Fluka, type DC 200) to prevent evaporation.
Bar-coded assay plates are robotically loaded onto a thermostatically controlled PCR-type thermal block and then heated at a typical ramp-rate of 1 °C/minute for all experiments. Fluorescence was measured by continuous illumination with UV light (Hamamatsu LC6) supplied via fiber optic and filtered through a band-pass filter (380-400 nm; >6 OD cutoff). Fluorescence emission of the entire 384-well plate was detected by measuring light intensity using a CCD camera (Sensys, Roper Scientific) filtered to detect 500 ± 25 nm, resulting in simultaneous and independent readings of all 384 wells. Images were collected at each temperature, and the sum of the pixel intensity in a given area of the assay plate was recorded versus temperature. Reference wells contained RORyt without compounds, and the assay conditions were as follows: • 0.065 mg/mL RORγt • 60 µM 1,8-ANS • 100 mM Hepes, pH 7.0 • 10 mM NaCl • 2.5 mM GSH • 0.002% Tween-20
Project compounds were arranged in a pre-dosed mother plate (Greiner Bio-one) wherein compounds are serially diluted in 100% DMSO by 1:2 from a high concentration of 10 mM over 12 columns within a series (column 12 is a reference well containing DMSO, no compound). The compounds were robotically dispensed directly into assay plates (1x = 46 nL) using a Hummingbird capillary liquid handling instrument (Digilab). Following compound dispense, protein and dye in buffer was added to achieve the final assay volume of 3 µL, followed by 1 µL of silicone oil.

human RORγt LBD = biological target: T3, human RORγt LBD (Homo sapiens, UniProt P51449); experiment: RORγt (LBD) Reporter Assay (GAL4 luciferase, HEK293T cells); type: cell-based; conditions: for inhibition at 6 µM: HEK-293T, 6 µM compound; for IC50: compounds for 24 hours
T3 construct: expressed in transfected cells; host or cells: HEK293T
T3 sequence (P51449 258-518): T2 sequence (P51449 258-518)
Procedure: as §1
A reporter assay was used to test functional activity of RORγt modulatory compounds on transcriptional activation driven by the RORγt LBD. Cells used in the assay were co-transfected with two constructs. The first construct, pBIND-RORγt LBD, contained the wild type human RORγt LBD fused to the DNA binding domain of the GAL4 protein. The second construct, pGL4.31 (Promega Cat no. C935A), contained multiple GAL4 responsive DNA elements upstream of firefly luciferase. […] The mutant construct was called pBIND-RORγt-AF2.
The pBIND vector contains the GAL4 DNA Binding Domain (GAL4 DBD) and the renilla luciferase gene under control of the SV40 promoter. Renilla luciferase expression serves as a control for transfection efficiency and cell viability.
The reporter assay was performed by transiently transfecting HEK293T cells with 5 µg of pBIND-RORγt LBD or pBIND-RORγt LBD-AF2 and 5 µg pGL4.31 (Promega Cat no. C935A) using Fugene 6 (Invitrogen Cat no. E2691) at a 1:6 ratio of DNA: Fugene 6 in a T-75 flask in which cells were at least 80% confluent. Twenty four hours after bulk transfection, cells were plated into 96-well plates at 50,000 cells/well in phenol-red free DMEM containing 5% Lipid Reduced FCS and Pen/Strep. Six hours after plating, cells were treated with compounds for 24 hours. Media was removed and cells were lysed with 50 µL 1x Glo Lysis Buffer (Promega). Dual Glo Luciferase Reagent (50 µL/well) was then added and firefly luciferase luminescence was read on an Envision after a ten minute incubation. Finally, Stop and Glo reagent (50 µL/well) was added and renilla luciferase luminescence was read on an Envision after a ten minute incubation. To calculate the effect of compounds on RORγt activity, the ratio of firefly to renilla luciferase was determined and plotted against compound concentration. Agonist compounds increase RORγt-driven luciferase expression, and antagonist or inverse agonist compounds decrease luciferase expression.

Structure (SMILES): COc1nc2ccc(C(O)c3c(C)noc3C)cc2c(Cl)c1Cc1ccc(C(F)(F)F)cc1 (single isomer, unassigned) [Example 20b, (4-Chloro-2-methoxy-3-(4-(trifluoromethyl)benzyl)quinolin-6-yl)(3,5-dimethylisoxazol-4-yl)methanol]
- inhibition at 2 µM (full-length human RORγt; 2 µM compound): 84%
- IC50 (full-length human RORγt): 300 nM
- Kd [1]: 290 nM

Structure (SMILES): COc1nc2ccc(C(O)c3c(C)noc3C)cc2c(Cl)c1Cc1ccc(C(F)(F)F)cc1 (single isomer, unassigned) [Example 20c, (4-Chloro-2-methoxy-3-(4-(trifluoromethyl)benzyl)quinolin-6-yl)(3,5-dimethylisoxazol-4-yl)methanol]
- RORγt (FL) Reporter Assay, % inhibition @ 2 µM (full-length human RORγt; 2 µM compound, 2 µM): 99%
- IC50 (full-length human RORγt): 23 nM
- Kd [1]: 22 nM

Structure (SMILES): COc1nc2ccc(C(O)c3ccc(C#N)cc3)cc2c(Cl)c1Cc1ccc(C#N)cc1 (stereo not drawn) [Example 9, 4-((4-Chloro-3-(4-cyanobenzyl)-2-methoxyquinolin-6-yl)(hydroxy)methyl)benzonitrile]
- inhibition at 0.67 µM (full-length human RORγt): 42%
- IC50 (full-length human RORγt): 150 nM
- Kd [1]: 680 nM

Structure (SMILES): COc1nc2ccc(C(O)c3c(C)noc3C)cc2c(Cl)c1Cc1ccc(C(F)(F)F)cc1 (stereo not drawn) [Example 20a, (4-Chloro-2-methoxy-3-(4-(trifluoromethyl)benzyl)quinolin-6-yl)(3,5-dimethylisoxazol-4-yl)methanol]
- inhibition at 2 µM (full-length human RORγt; 2 µM compound): 97%
- IC50 (full-length human RORγt): 52 nM
- Kd [1]: 86 nM

Structure (SMILES): Cc1ncc(C(O)c2ccc3nc(N4CCC4)c(Cc4ccc(C(F)(F)F)cc4)c(Cl)c3c2)n1C (stereo not drawn) [Example 22a, {2-Azetidin-1-yl-4-chloro-3-[4-(trifluoromethyl)benzyl]quinolin-6-yl}(1,2-dimethyl-1H-imidazol-5-yl)methanol]
- inhibition at 6 µM (human RORγt LBD): 92%
- IC50 (human RORγt LBD): 250 nM
- Kd [1]: 81 nM

Structure (SMILES): Cc1ccc(C(O)c2ccc3nc(N4CCC4)c(Cc4ccc(C(F)(F)F)cc4)c(Cl)c3c2)c(C)n1 (stereo not drawn) [Example 23a, {2-Azetidin-1-yl-4-chloro-3-[4-(trifluoromethyl)benzyl]quinolin-6-yl}(2,6-dimethylpyridin-3-yl)methanol]
- inhibition at 6 µM (human RORγt LBD): 95%
- IC50 (human RORγt LBD): 180 nM
- Kd [1]: 140 nM

Structure (SMILES): OC(c1ccncc1)c1ccc2nc(Cl)c(Cc3ccccc3)c(Cl)c2c1 (stereo not drawn) [Example 24, (3-Benzyl-2,4-dichloroquinolin-6-yl)(pyridin-4-yl)methanole•TFA]
- inhibition at 6 µM (human RORγt LBD): 41%
- IC50 (human RORγt LBD): > 6000 nM
- Kd [1]: 230 nM

Structure (SMILES): OC(c1ccncc1)c1ccc2nc(Cl)c(-c3ccccc3)c(Cl)c2c1 (stereo not drawn) [Example 25, (2,4-Dichloro-3-phenylquinolin-6-yl)(pyridin-4-yl)methanol•TFA]
- inhibition at 6 µM (human RORγt LBD): 47%
- IC50 (human RORγt LBD): > 6000 nM
- Kd [1]: 1200 nM

Structure (SMILES): OC(c1ccc(Cl)cc1)c1ccc2nc(Cl)c(-c3ccccc3Cl)c(Cl)c2c1 (stereo not drawn) [Example 26, (4-Chlorophenyl)(2,4-dichloro-3-(2-chlorophenyl)quinolin-6-yl)methanol]
- inhibition at 6 µM (human RORγt LBD): 68%
- IC50 (human RORγt LBD): ~3000 nM
- Kd [1]: 1400 nM

Structure (SMILES): COc1nc2ccc(C(O)C3CN(C(=O)OC(C)(C)C)C3)cc2c(Cl)c1Cc1ccc(C(F)(F)F)cc1 (stereo not drawn) [Example 32, tert-Butyl-3-((4-chloro-2-methoxy-3-(4-(trifluoromethyl)benzyl)quinolin-6-yl)(hydroxy)methyl)azetidine-1-carboxylate]
- inhibition at 6 µM (human RORγt LBD): 84%
- IC50 (human RORγt LBD): 2200 nM
- Kd [1]: 16000 nM

Structure (SMILES): COc1nc2ccc(C(O)c3c(C)nn(C)c3C)cc2c(Cl)c1Cc1ccc(C(F)(F)F)cc1 (stereo not drawn) [Example 34a, (4-Chloro-2-methoxy-3-(4-(trifluoromethyl)benzyl)quinolin-6-yl)(1,3,5-trimethyl-1H-pyrazol-4-yl)methanol]
- inhibition at 0.67 µM (full-length human RORγt): 95%
- IC50 (full-length human RORγt): 20 nM
- Kd [1]: 11 nM

Structure (SMILES): OC(c1ccc(Cl)cc1)c1ccc2nc(Cl)c(-c3ccccc3)c(Cl)c2c1 (stereo not drawn) [Example 35, (4-Chlorophenyl)(2,4-dichloro-3-phenylquinolin-6-yl)methanol]
- inhibition at 6 µM (human RORγt LBD): 45%
- IC50 (human RORγt LBD): > 6000 nM
- Kd [1]: 25000 nM
